# Data taken from patent USRE47689E1, “Compounds for treating spinal muscular atrophy” (PTC Therapeutics, Inc., priority 2011, dated 2019).
# Read-outs that look alike come from different tables or passages of the source.
# Columns and labels:
# [1] = test system: SMN2 minigene (full length SMN2 minigene mRNA containing SMN2 exon 7); experiment: SMN2 minigene mRNA splicing RT-qPCR assay in cultured cells; format: cell-based, human; details: Homo sapiens, HEK293-H, read-out: EC1.5x for production of full length SMN2 mRNA
# In short: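 Lysates → one-step RT-qPCR, minigene-specific primers (0.4 μM final) + GAPDH multiplex, 40 cycles. FL/GAPDH vs DMSO; EC1.5x, star-binned.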
# Smn protein = Smn protein assay in cultured cells (SMN HTRF); format: cell-based, human; details: 48 hours; for EC1.5x (concentration giving 1.5-fold Smn protein increase): SMA Type 1 patient fibroblast cells (GM03813), 7-point concentration curve, SMN HTRF, concentration producing 1.5 times Smn protein vs DMSO vehicle control, read-out: EC1.5x for Smn protein expression; for maximum fold (Fold) increase of Smn protein: SMA patient fibroblast cells, 7-point concentration data, fold increase relative to vehicle control (SMN HTRF)
# In short: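 Smn in SMA fibroblast lysates, measured by anti-SMN HTRF after 48 h compound exposure; EC1.5x from fold change over vehicle.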
# [2] = HEK293H cells stably transfected with SMN2-A minigene, 24 hours, 7-point concentration curve, 1.5-fold relative to vehicle-treated cells
SMILES,"EC (1.5-fold) [1, 2] [µM]",melting point [°C],EC1.5x (concentration giving 1.5-fold Smn protein increase) (Smn protein) [nM],maximum fold (Fold) increase of Smn protein (Smn protein),EC (1.5-fold) ([1]; 24 h) [µM]
"Cc1cn2cc(-c3cc4ccc(CCN(C)CCO)cc4oc3=O)nc2c(C)n1 [Compound 871, 3-(6,8-dimethylimidazo[1,2-a]pyrazin-2-yl)-7-{2-[(2-hydroxyethyl)(methyl)amino]ethyl}-2H-chromen-2-one]",< 0.1,168 to 172,< 300,**** (fold increase between >1.5 and ≤1.65),
"Cc1cn2cc(-c3cc4ccc(N5CCCNCC5)cc4oc3=O)ccc2n1 [Compound 663, 7-(1,4-diazepan-1-yl)-3-(2-methylimidazo[1,2-a]pyridin-6-yl)-2H-chromen-2-one]",< 0.1,222 to 225,,*** (fold increase between >1.35 and ≤1.5),
"C[C@@H]1CN(c2ccc3cc(-c4cn5cc(Cl)cnc5n4)c(=O)oc3c2)CCN1 [Compound 350, 3-(6-chloroimidazo[1,2-a]pyrimidin-2-yl)-7-[(3R)-3-methylpiperazin-1-yl]-2H-chromen-2-one]",1 to 3,255 to 259,,* (maximum fold increase of ≤1.2),
"Cc1cn2cc(-c3cc4ccc(N5CCC(NC(C)CO)CC5)cc4oc3=O)nc2c(C)n1 (centres unmarked) [Compound 925, 3-(6,8-dimethylimidazo[1,2-a]pyrazin-2-yl)-7-{4-[(1-hydroxypropan-2-yl)amino]piperidin-1-yl}-2H-chromen-2-one]",< 0.1,185 to 189,1000 to 3000,*** (fold increase between >1.35 and ≤1.5),
"CN1CCCN(c2ccc3cc(-c4cn5cccnc5n4)c(=O)oc3c2)CC1 [Compound 118, 3-(imidazo[1,2-a]pyrimidin-2-yl)-7-(4-methyl-1,4-diazepan-1-yl)-2H-chromen-2-one]",0.1 to 0.3,252 to 254,< 300,***** (fold increase >1.65),
"Cc1cn2cc(-c3cc4ccc(CN5CCNCC5)cc4oc3=O)nc2c(C)n1 [Compound 848, 3-(6,8-dimethylimidazo[1,2-a]pyrazin-2-yl)-7-(piperazin-1-ylmethyl)-2H-chromen-2-one]",< 0.1,189 to 195,300 to 1000,***** (fold increase >1.65),
"O=c1oc2cc(N3CCNCC3)ccc2cc1-c1cccc(F)c1 [Compound 26, 3-(3-fluorophenyl)-7-(piperazin-1-yl)-2H-chromen-2-one]",,148 to 150,,* (maximum fold increase of ≤1.2),1 to 3
"C[C@@H]1CN(c2ccc3cc(-c4nc(C(F)(F)F)cs4)c(=O)oc3c2)CCN1 [Compound 240, 7-[(3R)-3-methylpiperazin-1-yl]-3-[4-(trifluoromethyl)-1,3-thiazol-2-yl]-2H-chromen-2-one]",1 to 3,234 to 238,,* (maximum fold increase of ≤1.2),
"CC(C)NCc1ccc2cc(-c3nc4c(C(F)(F)F)cccc4s3)c(=O)oc2c1 [Compound 9, 7-[(propan-2-ylamino)methyl]-3-[4-(trifluoromethyl)-1,3-benzothiazol-2-yl]-2H-chromen-2-one]",3 to 30,191 to 196,,* (maximum fold increase of ≤1.2),
"Cc1cn2cc(-c3cc4ccc(N5CCN[C@H](C)C5)cc4oc3=O)cc2c(C)n1 [Compound 668, 3-(1,3-dimethylpyrrolo[1,2-a]pyrazin-7-yl)-7-[(3R)-3-methylpiperazin-1-yl]-2H-chromen-2-one]",< 0.1,205 to 209,< 300,***** (fold increase >1.65),
"CC(=O)O.CC(=O)O.CC[C@H]1CN(c2ccc3cc(-c4cn5cc(C)nc(C)c5n4)c(=O)oc3c2)CCN1CC [Compound 779, 7-[(3S)-3,4-diethylpiperazin-1-yl]-3-(6,8dimethylimidazo[1,2-a]pyrazin-2-yl)-2H-chromen-2-one acetate (1:2)]",< 0.1,170 to 174,< 300,***** (fold increase >1.65),
"COc1ccncc1-c1cc2ccc(N3CCNCC3)cc2oc1=O [Compound 234, 3-(4-methoxypyridin-3-yl)-7-(piperazin-1-yl)-2H-chromen-2-one]",3 to 30,179 to 181,,* (maximum fold increase of ≤1.2),
"Cc1cn2cc(-c3cc4ccc(O[C@@H]5CCNC5)cc4oc3=O)nc2cn1 [Compound 594, 3-(6-methylimidazo[1,2-a]pyrazin-2-yl)-7-[(3R)-pyrrolidin-3-yloxy]-2H-chromen-2-one]",< 0.1,254 to 258,< 300,***** (fold increase >1.65),
"CCN(CC)CCCc1ccc2cc(-c3cn4cc(C)nc(C)c4n3)c(=O)oc2c1 [Compound 969, 7-[3-(diethylamino)propyl]-3-(6,8-dimethylimidazo[1,2-a]pyrazin-2-yl)-2H-chromen-2-one]",< 0.1,165 to 168,< 300,**** (fold increase between >1.5 and ≤1.65),
"C[C@@H]1CN(c2ccc3cc(-c4cn5cccc(Cl)c5n4)c(=O)oc3c2)CCN1 [Compound 183, 3-(8-chloroimidazo[1,2-a]pyridin-2-yl)-7-[(3R)-3-methylpiperazin-1-yl]-2H-chromen-2-one]",0.3 to 1,215 to 218,,** (fold increase between >1.2 and ≤1.35),
"Cc1ccn2nc(-c3cc4ccc(N5CCNCC5)cc4oc3=O)cc2c1 [Compound 302, 3-(5-methylpyrazolo[1,5-a]pyridin-2-yl)-7-(piperazin-1-yl)-2H-chromen-2-one]",0.1 to 0.3,228 to 231,300 to 1000,*** (fold increase between >1.35 and ≤1.5),
"Cc1cn2cc(-c3cc4ccc(OCCNCCO)cc4oc3=O)nc2c(C)n1 [Compound 959, 3-(6,8-dimethylimidazo[1,2-a]pyrazin-2-yl)-7-{2-[(2-hydroxyethyl)amino]ethoxy}-2H-chromen-2-one]",< 0.1,175 to 177,300 to 1000,*** (fold increase between >1.35 and ≤1.5),
"O=C(O)C(F)(F)F.O=c1oc2cc(N3CCNCC3)ccc2cc1-c1nc(C(F)(F)F)cs1 [Compound 52, 7-(piperazin-1-yl)-3-[4-(trifluoromethyl)-1,3-thiazol-2-yl]-2H-chromen-2-one trifluoroacetate]",0.3 to 1,221 to 229,,* (maximum fold increase of ≤1.2),
"Cc1cn2cc(-c3cc4ccc(N[C@H]5CCN(C)C5)cc4oc3=O)nc2c(C)n1 [Compound 657, 3-(6,8-dimethylimidazo[1,2-a]pyrazin-2-yl)-7-{[(3S)-1-methylpyrrolidin-3-yl]amino}-2H-chromen-2-one]",< 0.1,223 to 233,< 300,**** (fold increase between >1.5 and ≤1.65),
"Cc1cc(C)c2nc(-c3cc4ccc(N5CCNCC5)cc4oc3=O)cn2c1 [Compound 260, 3-(6,8-dimethylimidazo[1,2-a]pyridin-2-yl)-7-(piperazin-1-yl)-2H-chromen-2-one]",0.3 to 1,219 to 229,,* (maximum fold increase of ≤1.2),
"Cc1ccc2nc(-c3cc4c(F)cc(N5CCNCC5)cc4oc3=O)cn2c1 [Cpd 162, 5-fluoro-3-(6-methylimidazo[1,2-a]pyridin-2-yl)-7-(piperazin-1-yl)-2H-chromen-2-one]",0.1 to 0.3,265 to 270,300 to 1000,*** (fold increase between >1.35 and ≤1.5),
"Cc1cn2cc(-c3cc4ccc(N5CCN(C)[C@H](C)C5)cc4oc3=O)nc2c(C)n1 [Compound 606, 3-(6,8-dimethylimidazo[1,2-a]pyrazin-2-yl)-7-[(3R)-3,4-dimethylpiperazin-1-yl]-2H-chromen-2-one]",< 0.1,220 to 221,< 300,***** (fold increase >1.65),
"Cc1cn2cc(-c3cc4ccc(N5CCN6CCC[C@@H]6C5)cc4oc3=O)nc2c(C)n1 [Compound 632, 3-(6,8-dimethylimidazo[1,2-a]pyrazin-2-yl)-7-[(8aR)-hexahydropyrrolo[1,2-a]pyrazin-2(1H)-yl]-2H-chromen-2-one]",< 0.1,255 to 258,< 300,***** (fold increase >1.65),
